Source: article PMC5365654, “Cyclic Boronates Inhibit All Classes of β-Lactamases” (Antimicrobial Agents and Chemotherapy, 2017)
Where two headings read alike, the source gives them in different places.

Legend:
E. coli EC107, ST 131 = experiment: Broth microtiter dilution MIC, EC107; type: cell-based; details: Escherichia coli, CTX-M-15 (A), OXA-1 (D), read-out: MIC (mg/liter) for β-lactam
Procedure: (§1) The in vitro activity of cyclic boronate 2 was assessed using nine clinical isolates carrying multiple β-lactamases (Table 3). The isolates selected included Enterobacteriaceae (E. coli ST 131, Klebsiella pneumoniae ST 258, and Providencia stuartii) producing class A ESBLs (CTX-M-15, CTX-M-27, SHV-5, and VEB-1), serine carbapenemase (KPC-2) and metallo-carbapenemases (VIM-1 and VIM-2), plasmid-mediated AmpC (CMY-2), and/or carbapenem-hydrolyzing OXA-48-like oxacillinases (OXA-181 and OXA-232) in various combinations. The activity against carbapenemase-producing strains of Pseudomonas aeruginosa (VIM-2) and Acinetobacter baumannii (OXA-23) was also investigated. All isolates have previously undergone extensive phenotypic and genotypic characterization ([60]).
(§2) MICs were determined using commercial Sensititre GN4F panels (Thermo Scientific, UK; lot B55051) and Mueller-Hinton II cation-adjusted broth (Oxoid, UK), with and without the addition of cyclic boronate 2 at a fixed concentration of 10 μg/ml. Plates were incubated at 37°C for 18 h and MICs read by eye following the addition of alamarBlue reagent (Trek Diagnostics).

K. pneumoniae KP58 = experiment: Broth microtiter dilution MIC, KP58; type: cell-based; details: Klebsiella pneumoniae, SHV-11 (A), VIM-4 (B), read-out: MIC (mg/liter) for β-lactam
Procedure: as §1, §2

K. pneumoniae KP41 = experiment: Broth microtiter dilution MIC, KP41; type: cell-based; details: Klebsiella pneumoniae, TEM-1, SHV-1, SHV-5, SHV-11, CTX-M-15 (A), OXA-232 (D), read-out: MIC (mg/liter) for β-lactam
Procedure: as §1, §2

[1] = tested on: P. aeruginosa PA12, ST 111; experiment: Broth microtiter dilution MIC, PA12; type: cell-based; details: Pseudomonas aeruginosa, VIM-2 (B), read-out: MIC (mg/liter) for β-lactam
Procedure: as §1, §2

K. pneumoniae KP15 = experiment: Broth microtiter dilution MIC, KP15; type: cell-based; details: Klebsiella pneumoniae, TEM-1 (A), SHV-11 (A), KPC-2 (A), read-out: MIC (mg/liter) for β-lactam
Procedure: as §1, §2

P. stuartii PS71 = experiment: Broth microtiter dilution MIC, PS71; type: cell-based; details: Providencia stuartii, TEM-1 (A), SHV-5 (A), VEB-1 (A), VIM-1 (B), read-out: MIC (mg/liter) for β-lactam
Procedure: as §1, §2

A. baumannii AB14 = experiment: Broth microtiter dilution MIC, AB14; type: cell-based; details: Acinetobacter baumannii, OXA-23 (D), OXA-51 (D), read-out: MIC (mg/liter) for β-lactam
Procedure: as §1, §2

E. coli EC86 = experiment: Broth microtiter dilution MIC, EC86; type: cell-based; details: CTX-M-15 (A), CMY-4 (C), OXA-181 (D); for MIC: Escherichia coli
Procedure: as §1, §2

E. coli EC114, ST 131 = experiment: Broth microtiter dilution MIC, EC114; type: cell-based; details: Escherichia coli, TEM-1 (A), CTX-M-15 (A), OXA-1 (D), read-out: MIC (mg/liter) for β-lactam
Procedure: as §1, §2

E. coli EC113, ST 131 = experiment: Broth microtiter dilution MIC, EC113; type: cell-based; details: Escherichia coli, CTX-M-27 (A), read-out: MIC (mg/liter) for β-lactam
Procedure: as §1, §2

CTX-M-15 = target: T1, CTX-M-15 (Escherichia coli, UniProt Q9EXV5); experiment: FC5 fluorogenic β-lactamase inhibition assay, CTX-M-15; type: biochemical; details: FC5 substrate, read-out: IC50, nM (mean ± SD) for CTX-M-15
T1 construct: hexahistidine (pOPINF, 3C-cleavable) (N, cleaved yes); made in house; host or cells: E. coli BL21(DE3)
Text: To investigate the extent to which cyclic boronates inhibit class C β-lactamases as well as the important class A ESBL and class D carbapenemase targets, we used a fluorogenic assay ([22]) to screen the cyclic boronates, which we have found to inhibit other β-lactamases ([21]), against them. The β-lactamases used for screening included TEM-1 and CTX-M-15 (class A), the metallo-β-lactamase (MBL) from Bacillus cereus (BcII), Verona integron-encoded metallo-β-lactamase 1 (VIM-1) (class B), AmpC from P. aeruginosa (class C), and OXA-23 and OXA-48 (class D), collectively representing all classes of β-lactamase.
Inhibition assays were carried out using FC5 as a fluorogenic reporter substrate ([22]). Enzyme concentrations and buffers were the same as those employed in steady-state kinetic studies (see Table S2 in the supplemental material). […] The concentration of FC5 employed was 10 μM for TEM-1 and 5 μM for all other enzymes. […] Data at 0 min of incubation were obtained by addition of enzyme to a premixed solution of inhibitor and substrate. Residual enzyme activity was determined for a range of inhibitor concentrations. Nonlinear regression fitting of IC50 curves was carried out using a three-parameter dose-response curve in GraphPad Prism. Errors in IC50 are expressed as [σ(log IC50)/log IC50)] × IC50.
45 Steady-state kinetics studies used a Pherastar FS microplate reader with UV-STAR® 96-well,
47 black, µclear® plates (Greiner Bio-One) for FC5 (1). Buffers employed were 100 mM
48 phosphate buffer pH 7.5, 0.01% (v/v) Triton X-100 for TEM-1, CTX-M-15 and AmpC, 100 mM
49 phosphate buffer pH 7.5, 50 mM sodium bicarbonate, 0.01% Triton X-100 for OXA-23 and
51 1 µM ZnSO4, 0.01% Triton X-100 for MBL assays. Reaction progress was monitored at 298 K
53 intensity (λex = 380 nm, λem = 480 nm) for FC5 (1). Suitable enzyme concentrations for
54 kinetic analysis were determined by monitoring changes in absorbance/fluorescence for
55 enzyme concentrations between 20 nM and 20 pM.
Kinetic constants were determined using the initial rate of hydrolysis with the
57 reaction initiated through the addition of enzyme to pre-prepared substrate concentrations.
58 Substrate concentrations ranged between 400 µM and 0.4 µM. The Michaelis-Menten
59 equation was fitted to data by non-linear regression using GraphPad Prism software to
60 calculate the Michaelis-Menten constant and the limiting rate (2).

[2] = with cyclic boronate 2 (10 mg/liter) supplementation
[3] = without cyclic boronate 2 supplementation
[4] = E. coli EC86, with cyclic boronate 2 (10 mg/liter) supplementation, read-out: MIC (mg/liter) for β-lactam
[5] = EC86, read-out: MIC (mg/liter) for β-lactam, E. coli EC86, without cyclic boronate 2 supplementation

T1 sequence (Q9EXV5 entry or part of it): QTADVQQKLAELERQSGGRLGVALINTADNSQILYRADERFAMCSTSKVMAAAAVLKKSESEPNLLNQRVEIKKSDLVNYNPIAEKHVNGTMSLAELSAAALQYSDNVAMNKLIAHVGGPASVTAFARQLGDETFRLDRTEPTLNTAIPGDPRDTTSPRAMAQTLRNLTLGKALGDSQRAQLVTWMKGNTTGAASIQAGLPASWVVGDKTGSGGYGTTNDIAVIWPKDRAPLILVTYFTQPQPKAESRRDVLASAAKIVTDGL

Structure (SMILES) | MIC (E. coli EC107, ST 131; [2]) | MIC (E. coli EC107, ST 131; [3]) | MIC (K. pneumoniae KP58; [2]) | MIC (K. pneumoniae KP58; [3]) | MIC (K. pneumoniae KP41; [2]) | MIC (K. pneumoniae KP41; [3]) | MIC [1, 2] | MIC [1, 3] | MIC (K. pneumoniae KP15; [2]) | MIC (K. pneumoniae KP15; [3]) | MIC (P. stuartii PS71; [2]) | MIC (P. stuartii PS71; [3]) | MIC (A. baumannii AB14; [2]) | MIC (A. baumannii AB14; [3]) | MIC (E. coli EC86; [4]) | MIC (E. coli EC114, ST 131; [2]) | MIC (E. coli EC114, ST 131; [3]) | MIC (E. coli EC113, ST 131; [2]) | MIC (E. coli EC113, ST 131; [3]) | further results
CC1(C)S[C@@H]2[C@H](NC(=O)[C@H](N)c3ccccc3)C(=O)N2[C@H]1C(=O)O [AMP, ampicillin] | > 16 mg/L | > 16 mg/L | > 16 mg/L | > 16 mg/L | > 16 mg/L | > 16 mg/L | > 16 mg/L | > 16 mg/L | > 16 mg/L | > 16 mg/L | > 16 mg/L | > 16 mg/L | > 16 mg/L | > 16 mg/L | > 16 mg/L | > 16 mg/L | > 16 mg/L | ≤ 8 mg/L | > 16 mg/L | MIC (mg/liter) for β-lactam (E. coli EC86; E. coli EC86, without cyclic boronate 2 supplementation): >16 mg/L
NC(=O)[C@@H]1CC[C@@H]2CN1C(=O)N2OS(=O)(=O)O [Avibactam, avibactam] |  |  |  |  |  |  |  |  |  |  |  |  |  |  |  |  |  |  |  | IC50 (CTX-M-15; preincubation 0 min): 9.9 ± 0.2 nM; IC50 (CTX-M-15; preincubation 10 min): 1.1 ± 0.1 nM; IC50 (CTX-M-15; preincubation 30 min): 0.4 ± 0.06 nM; IC50 (CTX-M-15; preincubation 60 min): 0.39 ± 0.01 nM; IC50 (CTX-M-15; preincubation 360 min): 6.4 ± 0.1 nM
CC(C)(O/N=C(\C(=O)N[C@@H]1C(=O)N2C(C(=O)[O-])=C(C[n+]3ccccc3)CS[C@H]12)c1csc(N)n1)C(=O)O [CAZ, ceftazidime] | ≤ 1 mg/L | > 16 mg/L | 2 mg/L | > 16 mg/L | > 16 mg/L | > 16 mg/L | > 16 mg/L | > 16 mg/L | 4 mg/L | > 16 mg/L | > 16 mg/L | > 16 mg/L | > 16 mg/L | > 16 mg/L | 8 mg/L | ≤ 1 mg/L | > 16 mg/L | ≤ 1 mg/L | 8 mg/L | MIC (E. coli EC86; [5]): > 16 mg/L
CO/N=C(\C(=O)N[C@@H]1C(=O)N2C(C(=O)O)=C(CSc3nc(=O)c(=O)[nH]n3C)CS[C@H]12)c1csc(N)n1 [CRO, ceftriaxone] | < 0.5 mg/L | > 16 mg/L |  |  |  |  | > 32 mg/L | > 32 mg/L |  |  | 16 mg/L | > 32 mg/L | > 32 mg/L | > 32 mg/L | 8 mg/L | < 0.5 mg/L | > 32 mg/L | < 0.5 mg/L | > 32 mg/L | MIC (E. coli EC86; [5]): > 16 mg/L
C[C@@H](O)[C@H]1C(=O)N2C(C(=O)O)=C(S[C@@H]3CN[C@H](C(=O)Nc4cccc(C(=O)O)c4)C3)[C@H](C)[C@H]12 [ERT, ertapenem] |  |  |  |  |  |  |  |  |  |  |  |  |  |  | 4 mg/L |  |  |  |  | 
Cc1nnc(SCC2=C(C(=O)O)N3C(=O)[C@@H](NC(=O)Cn4cnnn4)[C@H]3SC2)s1 [FAZ, cefazolin] | 8 mg/L |  | > 16 mg/L | > 16 mg/L | > 16 mg/L | > 16 mg/L | > 16 mg/L | > 16 mg/L | > 16 mg/L | > 16 mg/L | 4 mg/L | > 16 mg/L | > 16 mg/L | > 16 mg/L |  | 8 mg/L |  | 4 mg/L |  | 
CO/N=C(\C(=O)N[C@@H]1C(=O)N2C(C(=O)[O-])=C(C[N+]3(C)CCCC3)CS[C@H]12)c1csc(N)n1 [FEP, cefepime] | 8 mg/L |  | > 32 mg/L | > 32 mg/L | 32 mg/L | > 32 mg/L | > 32 mg/L | > 32 mg/L | ≤ 4 mg/L | > 32 mg/L | 8 mg/L | > 32 mg/L | 32 mg/L | > 32 mg/L | ≤ 4 mg/L | 8 mg/L |  | ≤ 4 mg/L |  | 
